Columns and labels:
Experiment in all cases: relative viability (nuclei count vs DMSO), 5 days (fraction); higher = more cells survive
[1] = compound: CC1=C(C(=NN1)C)CC2=C(C3=C(S2)N(C(=O)N(C3=O)C)CC(C)C)C(=O)N4C[C@@H](CO4)O + CC1(C)CCC(c2ccc(Cl)cc2)=C(CN2CCN(c3ccc(C(=O)NS(=O)(=O)c4ccc(N[C@H](CCN5CCOCC5)CSc5ccccc5)c(S(=O)(=O)C(F)(F)F)c4)cc3)CC2)C1 [Navitoclax] (partner 0.5 µM)
Summary of the method: (§1)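 Relative viability was taken as the ratio of nuclei in treated wells to nuclei in vehicle wells. Lung cancer cell lines in 1536-well plates received compounds by pin tool one day after seeding, either one drug alone or a fixed anchor-drug dose plus five library-drug doses (not always all listed) in √10 steps. Nuclei were counted on 4× images after 5 days of treatment, and values are medians of duplicate plates.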

[2] = compound: CC1=C(C(=NN1)C)CC2=C(C3=C(S2)N(C(=O)N(C3=O)C)CC(C)C)C(=O)N4C[C@@H](CO4)O + C[C@]1(O)C[C@@H](c2nc(-c3ccc4ccc(-c5ccccc5)nc4c3)c3c(N)nccn32)C1 [Linsitinib] (partner 1 µM)
Summary of the method: as §1

[3] = compound: CC1=C(C(=NN1)C)CC2=C(C3=C(S2)N(C(=O)N(C3=O)C)CC(C)C)C(=O)N4C[C@@H](CO4)O + CC(=O)c1c(C)c2cnc(Nc3ccc(N4CCNCC4)cn3)nc2n(C2CCCC2)c1=O [Palbociclib] (partner 0.5 µM)
Summary of the method: as §1

[4] = compound: CC1=C(C(=NN1)C)CC2=C(C3=C(S2)N(C(=O)N(C3=O)C)CC(C)C)C(=O)N4C[C@@H](CO4)O + CC(=O)Nc1cccc(-n2c(=O)n(C3CC3)c(=O)c3c(Nc4ccc(I)cc4F)n(C)c(=O)c(C)c32)c1 [Trametinib] (partner 0.02 µM)
Summary of the method: as §1

Row | Cell Line | relative viability ([1]; first compound 0.0025 µM) | relative viability ([1]; first compound 0.007906 µM) | relative viability ([1]; first compound 0.025 µM) | relative viability ([1]; first compound 0.07906 µM) | relative viability ([1]; first compound 0.25 µM) | relative viability ([2]; first compound 0.0025 µM) | relative viability ([2]; first compound 0.007906 µM) | relative viability ([2]; first compound 0.025 µM) | relative viability ([2]; first compound 0.07906 µM) | relative viability ([2]; first compound 0.25 µM) | relative viability ([3]; first compound 0.0025 µM) | relative viability ([3]; first compound 0.007906 µM) | relative viability ([3]; first compound 0.025 µM) | relative viability ([3]; first compound 0.07906 µM) | relative viability ([3]; first compound 0.25 µM) | relative viability ([4]; first compound 0.0025 µM) | relative viability ([4]; first compound 0.007906 µM) | relative viability ([4]; first compound 0.025 µM) | relative viability ([4]; first compound 0.07906 µM) | relative viability ([4]; first compound 0.25 µM)
1 | 201T | 1.22 | 1.22 | 1.17 | 1.14 | 1.21 | 1.06 | 0.988 | 1.03 | 1.1 | 1.06 | 0.358 | 0.355 | 0.369 | 0.327 | 0.367 | 0.715 | 0.708 | 0.713 | 0.739 | 0.694
2 | A549 | 1.32 | 1.27 | 1.14 | 1.32 | 1.24 | 0.591 | 0.624 | 0.574 | 0.72 | 0.649 |  |  |  |  |  |  |  |  |  | 
3 | A-427 | 1.01 | 0.948 | 0.889 | 0.886 | 1.16 | 1.09 | 1.22 | 1.08 | 1.08 | 1.14 | 0.524 | 0.514 | 0.515 | 0.548 | 0.578 | 0.748 | 0.754 | 0.809 | 0.754 | 0.763
4 | ABC-1 |  |  |  |  |  | 0.676 | 0.793 | 0.905 | 1.27 | 0.8 | 0.72 | 0.445 |  | 0.638 | 0.729 |  |  |  |  | 
5 | BEN | 0.0618 | 0.0913 | 0.0867 | 0.0968 | 0.0771 | 0.932 | 0.79 | 0.762 | 0.663 | 0.862 | 0.448 | 0.484 | 0.471 | 0.423 | 0.502 | 0.955 | 0.927 | 0.922 | 0.862 | 0.826
6 | CAL-12T | 1.27 | 1.39 | 1.03 | 1.37 | 1.33 | 0.899 | 0.853 | 0.845 | 0.807 | 1.11 | 0.481 | 0.413 | 0.484 | 0.574 | 0.418 | 0.402 | 0.464 | 0.372 | 0.379 | 0.405
7 | COR-L23 | 0.783 | 0.984 | 0.777 | 0.781 | 0.845 | 0.975 | 0.859 | 0.601 | 0.788 | 0.713 | 0.291 | 0.266 | 0.238 | 0.245 | 0.318 | 0.662 | 0.74 | 0.452 | 0.547 | 0.712
8 | COR-L 105 | 0.969 | 0.768 | 0.682 | 0.561 | 0.657 | 1.1 | 0.943 | 0.853 | 0.961 | 0.95 | 0.433 | 0.423 | 0.395 | 0.403 | 0.383 | 0.48 | 0.443 | 0.511 | 0.466 | 0.406
9 | Calu-6 | 0.925 | 0.827 | 0.805 | 0.906 | 0.892 | 0.974 | 0.933 | 0.877 | 0.907 | 0.952 |  |  |  |  |  |  |  |  |  | 
10 | ChaGo-K-1 | 0.996 | 0.903 |  | 1.21 | 1.5 |  |  |  |  |  | 0.956 | 0.937 | 0.943 | 0.878 | 0.931 | 0.94 | 0.871 | 0.889 | 0.918 | 0.916
11 | EBC-1 | 0.473 | 0.426 | 0.485 | 0.498 | 0.494 | 0.989 | 0.847 | 0.805 | 1.05 | 1.08 |  |  |  |  |  |  |  |  |  | 
12 | EKVX | 1 | 1.04 | 0.988 | 0.907 | 0.933 | 0.978 | 1.05 | 0.939 | 1.05 | 1.04 | 0.475 | 0.44 | 0.417 | 0.368 | 0.39 | 0.397 | 0.339 | 0.353 | 0.246 | 0.372
13 | EMC-BAC-2 | 1.16 | 1.14 | 1.16 | 1.16 | 1.38 | 0.816 | 0.892 | 0.821 | 0.826 | 0.881 | 0.549 | 0.543 | 0.499 | 0.569 | 0.549 | 0.902 | 0.904 | 0.938 | 0.892 | 0.986
14 | EPLC-272H | 1.17 | 1.26 | 1.07 | 1.08 | 1.28 | 1.24 | 1.13 | 1.32 | 0.986 | 1.27 | 0.322 | 0.315 | 0.319 | 0.324 | 0.331 | 0.317 | 0.236 | 0.31 | 0.295 | 0.352
15 | H3255 | 0.562 | 0.542 | 0.516 | 0.487 | 0.568 | 1.06 | 0.881 | 0.909 | 1.01 | 1.11 | 0.32 | 0.326 | 0.269 | 0.296 | 0.315 | 0.602 | 0.693 | 0.671 | 0.617 | 0.681
16 | HARA | 1.26 | 1.2 | 1.07 | 1.1 | 1.15 | 1.08 | 1.01 | 0.919 | 0.924 | 1.01 | 0.308 | 0.199 | 0.28 | 0.247 | 0.264 | 1.14 | 0.991 | 0.759 | 0.662 | 0.782
17 | HCC-15 | 0.735 | 0.725 | 0.712 | 0.698 | 0.675 | 0.932 | 0.937 | 0.871 | 0.942 | 0.855 | 0.788 | 0.77 | 0.726 | 0.727 | 0.788 | 0.411 | 0.365 | 0.378 | 0.407 | 0.415
18 | HCC-44 | 0.925 | 1.08 | 1.04 | 0.892 | 1.19 | 0.855 | 0.713 | 0.629 | 0.684 | 0.74 | 0.989 | 0.992 | 0.961 | 0.894 | 1.05 | 1.11 | 1.08 | 1.1 | 1.05 | 1.05
